SMILES strings stand for the structures.

Consider 1 molecule from patent US5427999A, “Amine adducts as corrosion inhibitors” (Exxon Chemical Patents Inc., priority 1991, dated 1995).

The test system of experiment [1] is Skeletonema costatum. Kind of experiment: Marine phytoplankton inhibition of growth rate. Format: cell-based, Skeletonema costatum (Greville) Cleve, Clone Skel-5. The following applies: 72 h, control compound, measured in this test, read-out: normal growth rate, measured in this test. As for the experimental part: Growth inhibition tests have also been carried out to assess the impact of the compounds on the, marine algae Skeletonema Costatum. This is a test which is becoming required by some offshore authorities, and is therefore of particular interest when considering the practical applications of the compounds.
Test organisms: Skeletonema costatum (Greville) Cleve, Clone Skel-5.
Incubation: 3 days at 14° C., in light/darkness cycles of 14 hrs/10 hrs.
Test samples: Aliquots of each sample are weighed into phytoplankton medium and extracted; moderate shaking for 20 hrs at 14° C.
Control compound: Na-dodecyl-sulphate. Normally a concentration of 1.3 mg/kg gives 30 to 70% of normal growth rate. Measured in this test: 30% to 55%.
Results were calculated as the concentration of compound required to inhibit 50% growth of algae during three days of exposure, termed EC50, given in mg/kg (ppm). The interval EC20 to EC80 is also given.

The subject of experiment [2] is Skeletonema costatum. The following applies: normally a concentration of 1.3 mg/kg, 4320 min; cited from earlier work.

Turning to `CCCCCCCCCCCCOS(=O)(=O)O` [Na-dodecyl-sulphate], the activity at 1.3 mg/kg in experiment [1] was in the range of 30 to 55%. Also, the “normal growth rate, normally given by control compound” value in experiment [2] is listed as 30 to 70%.
